Assay results as given in patent US11753453B2, “Peptide kinase inhibitors and methods of use thereof” (B.G. NEGEV TECHNOLOGIES AND APPLICATIONS LTD., priority 2017, dated 2023).

Legend:
MCF-7 = test: XTT cell viability assay, MCF-7; assay type: cell-based; conditions: 5 μM and 10 μM, compared to the other peptides
Method: (§1) FIGS. 6A-6C show the efficacy of uORF2-encoded peptide mutated at position 10 (uPEP1-26[c/a]) in reducing cell viability on various cell lines. FIG. 6A: MCF-7 cells were seeded in 96 well plate and incubated for 24 hours with the indicated peptides. After 24 hours, the proliferation rate was monitored using XTT kit (Biological Industries, Israel) according to the manufacturer's instructions.
(§2) Cells were seeded on 96-wells plate at a cell density of 20,000 cells/well and were grown for 48 hours. Cells were treated as indicated for 48 hours. A XTT (#20-300-1000, Biological Industries) reaction solution was prepared (containing the XTT and activation solutions) and added (50 μl/well) into cell medium for 2-4 hours at 37° C. The plate was immediately read in an ELISA plate reader at 450-500 nm. Background reading was performed at 630 nm, and the results calculated as the differences between the values.
(§3) A uPEP21-26[10C/A] mutation of the PKCeta uORF2 peptide (SEQ ID NO: 1) was synthesized containing an alanine substitution at Cys-10, herein referred to as SEQ ID No 5. Cell lines MCF-7 (FIG. 6A), MDA-MB-231 (FIG. 6B) and HeLa (FIG. 6C) were treated with uPEP218-26, uPEP21-26, uPEP21-26[10C/A], uPEP21-17 and ηPS at doses of 5 μM and 10 μM in order to determine cell proliferation.

HeLa = test: XTT cell viability assay, HeLa; assay type: cell-based; conditions: 5 μM and 10 μM, compared to the other peptides
Method: as §1, §2, §3

MDA-MB-231 [1] = test: XTT cell viability assay, MDA-MB-231; assay type: cell-based; conditions: 5 μM and 10 μM, compared to the other peptides
Method: as §1, §2, §3

[2] = tested on: MDA-MB-231 (breast cancer); test: Scratch (wound healing) assay, MDA-MB-231; assay type: cell-based; conditions: MDA-MB-231, scratch assay
Method: (§4) FIG. 3A is a photograph taken from the scratch assay performed on MDA-MB-231 cells. Cells were seeded in 24-well plate and incubated for 4 hours with the indicated peptides in a free-serum media. After 4 hours, a scratch was made with a 200 μl pipette tip. Photographs of a selected area of each scratch were taken at indicated time points. Areas were measured by ImageJ software. FIGS. 3B-3D are graphs representing the analysis of the scratch assay performed as described in […] on cell lines MDA-MB-231, MCF-7 and MCF10A, respectively. All values were normalized to time 0 of each well and presented in percentage.
(§5) MCF-7 and MDA-MB-231 cells were seeded in 24-well plates and grown to full confluency. Subsequently, media with low serum (2% to MCF-7 and 0.1% to MDA-MB-231) containing the peptides were added to the wells for 4 h. Then, a scratch was placed in the middle of the well with a sterile 200 μl pipette tip (Eppendorf). After washing once with PBS, the respective treatments were returned. Wells were photographed at total magnification of 4× with an IX70 Olympus Optical light microscope (Tokyo, Japan). 3 Images for each well were taken every 24 h.
(§6) The in vitro effect of PKCeta uORF2 on cancer cell migration was tested […] by a standard scratch test assay, as described above. […]

PKCη = molecular target: T1, PKCη (Homo sapiens, UniProt P24723); test: In vitro kinase assay of PKCη with Myelin Basic Protein as substrate; assay type: biochemical; conditions: p-MBP, γ-32P radioactive kinase assay; compared to control peptide uPEP9-26 and ηPS; peptides 2 or 10 μM
T1 construct: HA; expressed in transfected cells
Method: (§7) FIG. 2A is a schematic view of the peptides derived from PKCη and used in the examples described herein. uPEP1-26 refers to the complete peptide encoded by uORF2; uPEP9-26 and uPEP18-26 refer to control peptides, which lack the PS motif; ηPS refer to a peptide containing the internal PS domain of PKCη. […] The kinase activity of PKCη was measured using Myelin Basic Protein (p-MBP) as a substrate and γ-^32P radioactive kinase assays. All values were normalized to the control sample without a peptide (Cont.). The data shown are the means of three separate experiments, and is also presented as the gel in FIG. 2C. FIG. 2D: Kinase assays were conducted as described in FIG. 2B, using uPEP1-26 at 2 μM concentration are depicted. All values were normalized to the control sample (without peptide). The data shown are the means of three separate experiments.
(§8) Immunoprecipitations were performed by using pre-absorbed mAbs on protein A/G-agarose beads for 1 h at room temperature. Excess Abs was removed by 3 washes in cold phosphate buffered saline (PBS) and Ab-coated beads were incubated with cell lysates overnight at 4° C. Immune complexes were precipitated by centrifugation followed by extensive washing with RIPA buffer without SDS (10 mM Tris-HCl pH 8.0, 100 mM NaCl, 5 mM EGTA, 1% NP-40, 45 mM β-mercaptoethanol, and 50 mM NaF). […] Kinase activity was evaluated with exposing reagents. […]

MCF7 = test: PrestoBlue cell viability/proliferation assay, MCF7; assay type: cell-based; conditions: compared with uPEP9-26, uPEP18-26 and ηPS
Method: (§9) FIGS. 4A-4D show the ability of the peptide encoded by uORF2 (uPEP21-26) to reduce viability of breast cancer and glioblastoma cells. FIG. 4A: MCF-7 cells were seeded onto 48-well plates. 24 hours later, the cells were incubated for 24 hours with the indicated peptides). Following incubation, the medium with tested peptide was gently aspirated from each well and 25 μL of PrestoBlue reagent was added to each well of the 48-well plate and incubated at 37° C. in 5% CO2 for 15 min, as recommended. The absorbance was detected by ‘Infinite M200 PRO’ reader. FIGS. 4B-4D are the results of experiments identical to that described by FIG. 4A, but performed on cells lines U251 MG (glioblastoma cell line), MDA-MB-231 and MCF10A, respectively.
(§10) MCF-7 and MDA-MB-231 cells were seeded at 2×10^4 cells/well in 48-well plates. After 24 h serum free-media containing the peptides was added to the wells for 4 h. Then, medium with serum was added and the plate was incubated for 24 h at incubator (5% CO2 humidified atmosphere at 37° C.). Following incubation, the medium with tested peptide was gently aspirated from each well and 25 μL of PrestoBlue™ reagent (Thermo #A13261) was added to each well of the 48-well plate and incubated at 37° C. in 5% CO2 for 15 min, as recommended. The absorbance was recorded at 570 nm and detected by ‘Infinite M200 PRO’ reader. […]

MDA-MB-231 [3] = test: PrestoBlue cell viability/proliferation assay, MDA-MB-231; assay type: cell-based; conditions: compared with uPEP9-26, uPEP18-26 and ηPS
Method: as §9, §10

[4] = tested on: PKCs from the novel PKC subfamily; test: In vitro kinase assay on PKC subfamilies; assay type: biochemical; conditions: peptide at 2 μM; normalized to control without peptide
Method: as §7, §8

[5] = tested on: U251 MG (glioblastoma cell line); test: PrestoBlue cell viability/proliferation assay, U251 MG; assay type: cell-based; conditions: compared with uPEP9-26, uPEP18-26 and ηPS
Method: as §9, §10

MCF7 (breast cancer) = test: Scratch (wound healing) assay, MCF7; assay type: cell-based
Method: as §4, §5, §6

4T1 cells = test: Breast 4T1 mouse model with PKCη knockdown cells; assay type: in vivo; conditions: 4T1 cells expressing shRNA vs scrambled control, female BALB/c mice
Method: FIG. 7A: 4T1 cells expressing shPKCη (SEQ ID NO: 33) or scrambled control were injected into mammary fat pad of 8-week-old female BALB/c mice. Tumor diameters were measured every week with vernier calipers. FIG. 7B: The mice were sacrificed after 8 weeks, and number of metastasis formed in the lungs was counted using Bouin's solutions. Error bars represent the mean±s.e.m, statistical analysis indicates for statistical significance in two-tailed, unpaired sample t-test.
Mice were anesthetized with a solution of 10 ml/mg Ketamine and 1.17 ml/mg xylazine, in saline. Anesthesia was injected intraperitoneally (IP) after sterilizing the inoculation area of the mice with 70% ethanol solution. Using a 27-gauge needle, 4T1 control and shPKCη knockdown cells (transfected with SEQ ID NOs 33-35 or scrambled control (obtained from the ATCC) were injected a few millimeters from the nipple, underneath the skin (120,000 cells in 50 μl per mouse).
Each week, mice were tested for tumors and the primary tumors were examined by caliper. After 10 weeks, mice were euthanized and examined for metastases in lung, liver and spleen, and samples were prepared for immuno staining.
To test the in vivo effects of PKCeta on tumor formation, the establishment and growth of breast cancer cells with (4T1 control cells) and without PKCeta (PKCeta knockdown 4T1 cells) was compared.

T1 sequence (P24723 whole entry): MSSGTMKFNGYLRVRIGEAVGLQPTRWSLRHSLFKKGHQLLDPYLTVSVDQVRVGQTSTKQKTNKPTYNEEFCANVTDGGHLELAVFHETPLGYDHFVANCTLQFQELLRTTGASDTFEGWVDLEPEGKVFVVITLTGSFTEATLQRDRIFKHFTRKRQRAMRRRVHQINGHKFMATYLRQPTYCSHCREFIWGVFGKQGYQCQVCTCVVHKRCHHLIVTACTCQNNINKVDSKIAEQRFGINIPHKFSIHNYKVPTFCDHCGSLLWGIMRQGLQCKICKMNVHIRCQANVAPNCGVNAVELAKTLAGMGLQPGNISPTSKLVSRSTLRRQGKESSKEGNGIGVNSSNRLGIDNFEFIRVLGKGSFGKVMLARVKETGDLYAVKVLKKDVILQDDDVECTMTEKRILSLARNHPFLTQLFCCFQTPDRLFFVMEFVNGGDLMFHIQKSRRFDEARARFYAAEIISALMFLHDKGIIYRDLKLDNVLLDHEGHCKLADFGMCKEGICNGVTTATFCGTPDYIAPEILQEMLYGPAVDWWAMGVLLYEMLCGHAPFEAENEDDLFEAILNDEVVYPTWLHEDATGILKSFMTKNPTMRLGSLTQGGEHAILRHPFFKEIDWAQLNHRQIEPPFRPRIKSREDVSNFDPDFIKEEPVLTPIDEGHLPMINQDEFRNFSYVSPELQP

Molecule: uPEP1-26[10C/A]: full-length PKCeta derived uORF peptide with alanine substitution at Cys-10; MASRGALRRXLSPGLPRLLHLSRGLA wherein X is A (MASRGALRRALSPGLPRLLHLSRGLA)
- reduction of cell viability (MCF-7): efficiently reduced cell viability
- reduction of cell viability (HeLa): efficiently reduced cell viability
- reduction of cell viability (MDA-MB-231 [1]): efficiently reduced cell viability

Molecule: uPEP1-26: full-length human PKCeta uORF2 peptide, 26 amino acids; MASRGALRRXLSPGLPRLLHLSRGLA wherein X is C (MASRGALRRCLSPGLPRLLHLSRGLA; listed as Homo sapiens)
- inhibition of cell migration [2]: inhibited migration
- inhibition of kinase activity of PKCη (PKCη): strongest inhibitor
- inhibition of cell proliferation (MCF7): inhibited cell proliferation the most
- inhibition of cell proliferation (MDA-MB-231 [3]): inhibited cell proliferation the most
- inhibition of kinase activity of PKCs from the novel PKC subfamily [4]: strongly inhibits
- inhibition of cell proliferation [5]: inhibited cell proliferation the most
- inhibition of cell migration (MCF7 (breast cancer)): inhibited migration

B1: SEQ ID NO: 33: shRNA sequence for targeting PKCη expression (nucleic acid)
chain: GATCCCCGGCCCGTCTTAACTCCGATTGATCTCGATCAATCGGAGTTAAGACGGGTTTTTG
- formation of tumor metastases (lungs) (4T1 cells): inhibited the formation of tumor metastases
- tumor volume over time (4T1 cells; mammary fat pad): significant inhibition in tumor size
